Experiments:
[1] = tested on: IL-17A induced secretion of IL-6 in primary human RASF cells; experiment: Inhibition of IL17A induced secretion of IL6 in human rheumatoid arthritis synovial fibroblast (RASF) cells; type: cell-based; details: Homo sapiens, Fibroblast
Outline: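 Primary RASF cells (passage 2-8) stimulated 20 h at 37 °C with rhIL-17A (30 ng/mL) pre-incubated 1 h with compound (final 0.03-25 μM, 0.25% DMSO). Supernatant IL-6 measured by ELISA, normalized to WST1 viability; triplicates.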

[2] = tested on: IL-17-induced GROα secretion from HT-29 cells; experiment: HT-29 cellular assay (IL-17-induced GROα secretion); type: cell-based; details: Homo sapiens
Description: To test the ability of a compound of the invention to neutralize or antagonize IL-17 bioactivity, the following cell-based assay was used. IL-17 can stimulate epithelial cells and other cells to secrete GROα. The ability of a compound of the invention to neutralize IL-17-induced GROα secretion from the human colorectal adenocarcinoma epithelial cell line HT-29 is tested in this assay.
HT-29 cells (human colorectal adenocarcinoma epithelial cells, ATCC #HTB-38), were maintained in culture/assay medium in tissue culture-treated flasks using standard techniques. HT-29 cells were grown in tissue culture flasks until they were 50-80% confluent on the day before the assay. The day before the assay, the cells were detached from the culture flasks with trypsin+EDTA. The trypsin was inactivated with complete assay medium. HT-29 cells were then centrifuged at 500×g for 5 minutes at room temperature. The cell pellet was then re-suspended in Defined Keratinocyte SFM (Invitrogen #10766019)+10% FCS and 50,000 HT-29 cells (in 100 μl) were added to each treatment well of the 96-well plates. The 96-well plates were placed in a tissue culture incubator (37° C., 5% CO2) overnight. The next day, the media was removed from the cells and the cells were washed twice with Defined Keratinocyte SFM. In a separate 96-well plate, compounds to be tested were serially diluted in Defined Keratinocyte SFM and run in triplicate in 100 μL total volume. To these compound samples were then added 100 μL of human IL-17 at a concentration of 20 ng/mL in Defined Keratinocyte SFM for serum-free assays. 150 μL of the compound/IL-17 mixture was then added to the cells from which the media has previously been removed. The cells were grown for 48 hours in Defined Keratinocyte SFM in a tissue culture incubator (37° C., 5% CO2).
At the end of the incubation, the plates are centrifuged (500×g for 5 minutes at room temperature), and the cell culture media is transferred to polypropylene 96-well plates. The supernatant was used neat in the ELISA. GROα levels are measured with a GROα sandwich ELISA (R+D Systems DuoSet #DY275E), as per the manufacturer's instructions. The ELISA plates were previously coated with mAb 275 (R+D Systems) at 4 μg/mL. GROα is detected using biotinylated goat anti-human GROα (R+D Systems BAF275) at 200 ng/mL using TMB as a substrate. At the end of the ELISA reactions, plates are read at 450 nm on a microplate reader and compared to a standard calibration curve.

Row | IC50 [2] | Compound | IC50 [1]
1 | – | O=C1CNC(=O)[C@@H](Cc2ccc(NC(=O)[C@H](Cc3ccccc3Cl)NC(=O)Cc3ccccn3)cc2)NC(=O)CC2(CCCC2)CC(=O)NCCCCCN1 [Compound 226] | 1000 to 10000 nM
2 | – | O=C1CNC(=O)[C@@H](Cc2ccc(NC(=O)[C@@H](NC(=O)Cc3ccccc3)C3CCCCC3)cc2)NC(=O)CC2(CCCC2)CC(=O)NCCCCCN1 [Compound 186] | 1000 to 10000 nM
3 | < 1000 nM | O=C1CNC(=O)[C@@H](Cc2ccc(NC(=O)[C@H](Cc3ccccc3Cl)NC(=O)Cc3ccccc3)cc2)NC(=O)CC2(CCCC2)CC(=O)NCCCCCN1 [Compound 159] | 1000 to 10000 nM
4 | > 10000 nM | COC(=O)[C@@H]1CCCCNC(=O)CCCNC(=O)[C@@H](Cc2ccc(NC(=O)[C@H](Cc3ccccc3F)NC(=O)Cc3ccccc3)cc2)NC(=O)CC2(CCCC2)CC(=O)N1 [Compound 106] | > 10000 nM
5 | < 1000 nM | O=C1CNC(=O)[C@@H](Cc2ccc(NC(=O)[C@H](Cc3ccc(Cl)cc3Cl)NC(=O)Cc3ccc(O)cc3)cc2)NC(=O)CC2(CCCC2)CC(=O)NCCCCCN1 [Compound 191] | 1000 to 10000 nM
6 | – | O=C1CNC(=O)[C@@H](Cc2ccc(NC(=O)[C@H](Cc3ccccc3Cl)NC(=O)c3cccnc3)cc2)NC(=O)CC2(CCCC2)CC(=O)NCCCCCN1 [Compound 194] | 100 to 1000 nM
7 | 1000 to 10000 nM | O=C1CNC(=O)[C@@H](Cc2ccc(NC(=O)[C@H](Cc3ccc(Cl)cc3Cl)NC(=O)Cc3ccccc3)cc2)NC(=O)CC2(CCCC2)CC(=O)NCCCCCN1 [Compound 185] | 1000 to 10000 nM

Row | Compound | IC50 [2] | IC50 [1]
8 | COC(=O)[C@@H]1CCCCNC(=O)CNC(=O)[C@@H](Cc2ccc(NC(=O)[C@H](Cc3ccccc3Cl)NC(=O)Cc3ccccc3)cc2)NC(=O)CC2(CCCC2)CC(=O)N1 [Compound 143] | < 1000 nM | 1000 to 10000 nM
9 | COC(=O)[C@@H]1CCCCNC(=O)CNC(=O)[C@@H](Cc2ccc(NC(=O)[C@H](Cc3ccccc3Cl)NC(=O)c3ccccc3)cc2)NC(=O)CC2(CCCC2)CC(=O)N1 [Compound 144] | 1000 to 10000 nM | 1000 to 10000 nM

Source: patent publication US9284283B2, “Macrocyclic compounds for modulating IL-17” (ENSEMBLE THERAPEUTICS CORPORATION, priority 2012, dated 2016)
